Source: patent US20240343747A1, “Heteroaryl compounds as inhibitors of TYK2, composition and application thereof” (Accro Bioscience (HK) Limited, priority 2021, published 2024)

How the values were obtained:
[1] = Metabolic stability test, human liver microsomes; format: in vitro ADME
Protocol: (§1) • 1. Buffer A: 1.0 L of 0.1 M monobasic Potassium Phosphate buffer containing 1.0 mM EDTA • Buffer B: 1.0 L of 0.1 M Dibasic Potassium Phosphate buffer containing 1.0 mM EDTA • Buffer C: 0.1 M Potassium Phosphate buffer, 1.0 mM EDTA, at about pH 7.4 by titrating 700 mL of Buffer B with Buffer A while monitoring with the pH meter. • 2. Reference compounds (Ketanserin) and test compounds spiking solution: • 500 µM spiking solution: add 10 μL of 10 mM DMSO stock solution into […] ACN. • 1.5 µM spiking solution in microsomes (0.75 mg/mL): add 1.5 μL of 500 µM spiking solution and 18.75 μL of 20 mg/mL liver microsomes into 479.75 μL of Buffer C on ice. • 3. Prepare NADPH stock solution (6 mM) by dissolving NADPH into buffer C. • 4. Dispense 30 μL of 1.5 µM spiking solution containing 0.75 mg/mL microsomes solution to the assay plates designated for different time points (0-, 5-, 15-, 30-, 45-min) on ice. • 5. For 0-min, add 135 μL of ACN containing IS to the wells of 0-min plate and then add 15 μL of NADPH stock solution (6 mM). • 6. Pre-incubate all other plates at 37° C. for 5 minutes. • 7. Add 15 μL of NADPH stock solution (6 mM) to the plates to start the reaction and timing. • 8. At 5-min, 15-min, 30-min, and 45-min, add 135 μL of ACN containing IS to the wells of corresponding plates, respectively, to stop the reaction. • 9. After quenching, shake the plates at the vibrator (IKA, MTS 2/4) for 10 min (600 rpm/min) and then centrifuge at 5594 g for 15 min (Thermo Multifuge×3R). • 10. Transfer 50 μL of the supernatant from each well into a 96-well sample plate containing 50 μL of ultra pure water (Millipore, ZMQS50F01) for LC/MS analysis.

[2] = Metabolic stability test, rat liver microsomes; format: in vitro ADME
Protocol: as §1

JAK2 JH1 = JAK2 JH1 (Homo sapiens (Human), UniProt O60674); experiment: Competitive binding assay (kinase-tagged phage, qPCR), JAK2 JH1
Protocol: For most assays, kinase-tagged T7 phage strains were prepared in an E. coli host derived from the BL21 strain. E. coli were grown to log-phase and infected with T7 phage and incubated with shaking at 32° C. until lysis. The lysates were centrifuged and filtered to remove cell debris. The remaining kinases were produced in HEK-293 cells and subsequently tagged with DNA for qPCR detection. Streptavidin coated magnetic beads were treated with biotinylated small molecule ligands for 30 minutes at room temperature to generate affinity resins for kinase assays. The liganded beads were blocked with excess biotin and washed with blocking buffer (SeaBlock (Pierce), 1% BSA, 0.05% Tween 20, 1 mM DTT) to remove unbound ligand and to reduce non-specific binding. […] Test compounds were prepared as 111X stocks in 100% DMSO. Dissociation constants (Kds) were determined using an 11-point 3-fold compound dilution series with three DMSO control points. […] The kinase concentration in the eluates was measured by qPCR.
An 11-point 3-fold serial dilution of each test compound was prepared in 100% DMSO at 100× final test concentration and subsequently diluted to 1× in the assay (final DMSO concentration=1%). Most Kds were determined using a compound top concentration=30,000 nM. […]
Binding constants (Kds) were calculated with a standard dose-response curve using the Hill equation: […]

TYK2/JAK2 pathway = experiment: Selectivity: TYK2/JAK2 pathway, IL-12-induced p-STAT4 in mouse spleen cells, western blot; format: cell-based, mice
Protocol: The spleen of mice was isolated and ground into single cells with bent tweezers. The single cells of the spleen were centrifuged for 5 minutes (400 g), and erythrocytes were lysed with ACK solution and neutralized in 1640 medium, centrifuged for 5 minutes (400 g), and then re-suspended in 1640 medium. The spleen single cell suspension was counted and incubated to a 6-well plate (5 million/well), the compound to be tested was added for 2 hours, and then IL-12 (50 ng/mL) was added to stimulate cells for 1 h. The cells were collected and lysed with protein lysate. The protein was quantitatively tested by BCA kit. Finally, p-STAT4/STAT4 and internal reference protein β-actin were detected by western blot.

TYK2/JAK1 pathway = experiment: Selectivity: TYK2/JAK1 pathway, IFN-α-induced p-STAT1 in human PBMC, western blot; format: cell-based
Protocol: Commercial human PBMC (peripheral blood mononuclear cells) were centrifuged (400 g) for 10 min, counted and planted on 6-well plates (5 million/well). Then, the compounds to be tested were added for 2 hours and IFN-α (100 ng/mL) was added to stimulate cells for 15 minutes. Protein lysate was used to lysate cells, and BCA kit was used for protein quantification. Finally, p-STAT1/STAT1, P-TYK2/TYK2 and internal reference protein B-Actin were detected by Western blot.

JAK1/JAK2 pathway = experiment: Selectivity: JAK1/JAK2 pathway, IFN-γ-induced p-STAT1 in HT-29 cells, western blot; format: cell-based; conditions: IFN-γ 100 ng/mL
Protocol: HT-29 cells were digested by trypsin and suspended in DMEM medium and counted. The tested compounds were added into 6 well plates (400 000/per well) for 2 hours, then IFN-γ (100 ng/mL) was added to stimulate cells for 30 minutes. The cells were collected and lysed with protein lysate. The protein was quantitatively tested by BCA kit. Finally, p-STAT1/STAT1 and internal reference protein β-actin were detected by western blot.

JAK1/JAK3 pathway = experiment: Selectivity: JAK1/JAK3 pathway, IL-2-induced p-STAT5 in human PBMC, western blot; format: cell-based; conditions: IL-2 100 ng/mL
Protocol: Commercial human PBMC (peripheral blood mononuclear cells) were centrifuged (400 g) for 10 min, counted and seeded into 6-well plates (5 million/well). The compounds to be tested were added for 2 hours and then IL-2 (100 ng/mL) was added to stimulate cells for 15 minutes. Finally, p-STAT5/STAT5 and internal reference protein β-actin were detected by Western blot.

Sequence of JAK2 JH1 (O60674 849-1124): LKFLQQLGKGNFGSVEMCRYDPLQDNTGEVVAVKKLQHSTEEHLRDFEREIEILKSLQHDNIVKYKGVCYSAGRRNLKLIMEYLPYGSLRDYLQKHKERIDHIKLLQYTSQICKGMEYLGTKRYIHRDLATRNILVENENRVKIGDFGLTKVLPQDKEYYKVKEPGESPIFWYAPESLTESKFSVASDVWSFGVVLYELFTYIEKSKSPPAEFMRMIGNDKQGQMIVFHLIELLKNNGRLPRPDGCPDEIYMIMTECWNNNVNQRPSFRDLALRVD

In the case of `CCC(=O)c1cnc(NC(=O)C2CC2)cc1Nc1cccc(-c2cc(P(C)(C)=O)n(C)n2)c1OC` [Compound B2, N-(4-((3-(5-(dimethylphosphoryl)-1-methyl-1H-pyrazol-3-yl)-2-methoxyphenyl)amino)-5-propionylpyridin-2-yl)cyclopropanecarboxamide], the “stability in human liver microsomes (in words)” value ([1]; conclusion from Table 5) is reported as “good stability”, the “CL HLM” value ([1]; human liver microsomes) is reported as less than 8.6 mL/min/kg and the half-life at 1 μM ([1]; pH 7.4, human liver microsomes, read-out: T1/2 HLM) is reported as greater than 2.42 h. The “stability in rat liver microsomes (in words)” value ([2]; conclusion from Table 5) was “good stability”, the half-life at 1 μM ([2]; pH 7.4, rat liver microsomes, read-out: T1/2 RLM) was 1.68 h and the “CL RLM” value ([2]; rat liver microsomes) was 24.6 mL/min/kg.
With `CCC(=O)c1cnc(NC(=O)C2CC2)cc1Nc1cccc(-c2cc(P(=O)(C3CC3)C3CC3)n(C)n2)c1OC` [Compound B37, N-(4-((3-(5-(dicyclopropylphosphoryl)-1-methyl-1H-pyrazol-3-yl)-2-methoxyphenyl)amino)-5-propionylpyridin-2-yl)cyclopropanecarboxamide] the Kd (JAK2 JH1) was greater than 30 µM, the “inhibition of TYK2/JAK2 pathway compared with BMS986165” value (TYK2/JAK2 pathway; IL-12) was “better than BMS986165” and the “inhibition of downstream STAT4 phosphorylation induced by IL-12” value (TYK2/JAK2 pathway; IL-12 50 ng/mL, western blot) was “effectively inhibit”. For the same compound, the “inhibition of TYK2/JAK1 pathway compared with BMS986165” value (TYK2/JAK1 pathway; IFN-α) was “better inhibitory activity than BMS986165”, the “inhibition of downstream STAT1 phosphorylation induced by IFN-α” value (TYK2/JAK1 pathway; IFN-α 100 ng/mL, western blot) was “effectively inhibit” and the “effect on downstream STAT1 phosphorylation induced by IFN-γ” value (JAK1/JAK2 pathway) was “no effect”. The “effect on IL-2-induced downstream STAT5 phosphorylation” value (JAK1/JAK3 pathway) was “no effect”.
